Key:
[1] = Half life in epileptic patient (6 patients) at 800 mg, po administered as single dose by gas liquid chromatographic method; type: ADME, organism-based; settings: human, in vivo
[2] = Total clearance in epileptic patient (6 patients) at 800 mg, iv administered as single dose by gas liquid chromatographic method; type: ADME, organism-based; settings: human, in vivo
[3] = Extrapolated volume of distribution in epileptic patient (6 patients) at 800 mg, iv administered as single dose by gas liquid chromatographic method; type: ADME, organism-based; settings: human, in vivo
[4] = system: Homo sapiens; experiment: Extrapolated volume of distribution in epileptic patient (6 patients) at 800 mg, po administered as single dose by gas liquid chromatographic method; type: ADME, organism-based; settings: in vivo
[5] = Initial plasma concentration in epileptic patient (6 patients) at 800 mg, iv administered as single dose by gas liquid chromatographic method; type: ADME, organism-based; settings: human
[6] = AUC (0 to 48 hrs) in epileptic patient (6 patients) at 800 mg, iv administered as single dose by gas liquid chromatographic method; type: ADME, organism-based; set-up: dose 800 mg, time < 48 hr, route intravenous; settings: human, in vivo
[7] = Elimination rate constant in healthy volunteer (6 volunteers) at 800 mg, iv administered as single dose by gas liquid chromatographic method; type: ADME, organism-based; settings: human, in vivo
[8] = Oral bioavailability in epileptic patient (6 patients) at 800 mg administered as single dose by gas liquid chromatographic method; type: ADME, organism-based; settings: human, in vivo
[9] = Cmax in epileptic patient (6 patients) at 800 mg, po administered as single dose by gas liquid chromatographic method; type: ADME, organism-based; set-up: dose 800 mg, route oral; settings: human, in vivo
[10] = system: Homo sapiens; experiment: Volume of distribution (area) in epileptic patient (6 patients) at 800 mg, po administered as single dose by gas liquid chromatographic method; type: ADME, organism-based; settings: in vivo
[11] = AUC (0 to infinity) in epileptic patient (6 patients) at 800 mg, iv administered as single dose by gas liquid chromatographic method; type: ADME, organism-based; set-up: dose 800 mg, route intravenous, time infinity; settings: human, in vivo
[12] = Apparent volume of distribution in epileptic patient (6 patients) at 800 mg, iv administered as single dose by gas liquid chromatographic method; type: ADME, organism-based; settings: human, in vivo, read-out: Vd(app)
[13] = Tmax in epileptic patient (6 patients) at 800 mg, po administered as single dose by gas liquid chromatographic method; type: ADME, organism-based; settings: human, in vivo
[14] = Half life in healthy volunteer (6 volunteers) at 800 mg, iv administered as single dose by gas liquid chromatographic method; type: ADME, organism-based; settings: human, in vivo
[15] = system: Homo sapiens; experiment: Toxicity in epileptic patient (6 patients) at 800 mg, po and iv administered as single dose by gas liquid chromatographic method; type: organism-based; settings: in vivo
[16] = Apparent volume of distribution in healthy volunteer (6 volunteers) at 800 mg, iv administered as single dose by gas liquid chromatographic method; type: ADME, organism-based; settings: human, in vivo, read-out: Vd(app)
[17] = Half life in epileptic patient (6 patients) at 800 mg, iv administered as single dose by gas liquid chromatographic method; type: ADME, organism-based; settings: human, in vivo
[18] = Elimination rate constant in epileptic patient (6 patients) at 800 mg, po administered as single dose by gas liquid chromatographic method; type: ADME, organism-based; settings: human, in vivo
[19] = Volume of distribution (area) in epileptic patient (6 patients) at 800 mg, iv administered as single dose by gas liquid chromatographic method; type: ADME, organism-based; settings: human, in vivo
[20] = AUC (0 to 48 hrs) in epileptic patient (6 patients) at 800 mg, po administered as single dose by gas liquid chromatographic method; type: ADME, organism-based; set-up: dose 800 mg, time < 48 hr, route oral; settings: human, in vivo
[21] = AUC (0 to infinity) in epileptic patient (6 patients) at 800 mg, po administered as single dose by gas liquid chromatographic method; type: ADME, organism-based; set-up: dose 800 mg, route oral, time infinity; settings: human, in vivo
[22] = Volume of distribution (area) in healthy volunteer (6 volunteers) at 800 mg, iv administered as single dose by gas liquid chromatographic method; type: ADME, organism-based; settings: human, in vivo
[23] = Total clearance in healthy volunteer (6 volunteers) at 800 mg, iv administered as single dose by gas liquid chromatographic method; type: ADME, organism-based; settings: human, in vivo
[24] = Tmax in healthy volunteer (6 volunteers) at 800 mg, po administered as single dose by gas liquid chromatographic method; type: ADME, organism-based; settings: human, in vivo
[25] = Elimination rate constant in epileptic patient (6 patients) at 800 mg, iv administered as single dose by gas liquid chromatographic method; type: ADME, organism-based; settings: human, in vivo

CCCC(CCC)C(=O)[O-].[Na+] [VALPROATE SODIUM]
half-life [1]: 9 h | clearance [2]: 16.7 mL/min | Vd [3]: 13.8 L | Vd [4]: 13.1 L | C0 [5]: 58.5 µg/mL | AUC(0-t) at 48 h [6]: 785 µg·h/mL | k el [7]: 1.52e-05 s⁻¹ | bioavailability [8]: 96% | Cmax [9]: 71.8 µg/mL | Vd [10]: 12.9 L | AUC(0-inf) [11]: 807 µg·h/mL | Vd [12]: 0.175 L/kg | Tmax [13]: 1.2 h | half-life [14]: 12.8 h | Activity [15]: Non-toxic | Vd [16]: 0.147 L/kg | half-life [17]: 9 h | k el [18]: 2.17e-05 s⁻¹ | Vd [19]: 12.8 L | AUC(0-t) at 48 h [20]: 749 µg·h/mL | AUC(0-inf) [21]: 771 µg·h/mL | Vd [22]: 10 L | clearance [23]: 9 mL/min | Tmax [24]: 1.8 h | k el [25]: 2.21e-05 s⁻¹

Reference: ChEMBL document CHEMBL3784958, “Disposition of sodium valproate in epileptic patients” (Br J Clin Pharmacol, 1978)
